Measured values from PubChem BioAssay AID179 (DTP/NCI, 2004).
Calls of active or inactive are those of the source.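 The calls were made as follows: active = compounds giving half or more protection of infected cells from virus-caused growth loss, again on retest; inactive = the rest.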

Test system: CEM cells HIV-1 protection, formazan growth assay
Experiment: NCI AIDS Antiviral Assay
Conditions: for IC50: measured here: growth of uninfected CEM cells
How it was run: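 Human CEM cells, uninfected and HIV-1-infected, received five drug concentrations, and growth was read by soluble formazan assay. Compounds giving at least 50% protection were retested; reproducible 100% protection defined confirmed active.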

Compound	outcome	EC50 [µM]	IC50 [µM]
C=C1C(=O)C[C@@]23CCC[C@@]12CC(O)C3 (stereo partly specified)	inactive	–	–
CCC[CH2][Sn]([CH2]CCC)([O]C(=O)Cc1ccc(F)cc1)[O]C(=O)Cc1ccc(F)cc1	–	> 25.1	4.79
CN(C)c1ccc(/C=C(\C#N)c2ccc(Cl)c(Cl)c2)cc1	–	> 100	3.63
c1csc(-c2ccsc2-c2ccsc2)c1	–	> 200	87.1
Cc1cc(=O)oc2cc(OCc3nc4ccccc4c(=O)n3-c3ccccc3)ccc12	–	> 43.7	> 43.7
CC(=O)Nc1ccc(C2=N/C(=C\c3ccc(Cl)c(Cl)c3)C(=O)O2)cc1	–	> 7.24	> 7.24
COc1ccc(-c2[nH]c3ccccc3c2-c2ccc(OC)cc2)cc1	–	> 200	12.9
COc1cc(C(C)O)c[n+](CCc2c[nH]c3ccccc23)c1 (stereo unspecified)	–	> 234	> 234
Cc1c(C(=O)C(=O)c2ccccc2)c(C)c(C(=O)C(=O)c2ccccc2)c(C)c1C(=O)C(=O)c1ccccc1	–	> 200	> 200
O=c1oc2ccccc2cc1-c1nc2ccccc2c(=O)[nH]1	–	> 100	> 100
N/N=C1/CCCc2nonc21	–	> 200	> 200
Cn1c2c(c(=O)n(C)c1=O)CS(=O)c1ccccc1N2 (stereo unspecified)	–	> 309	234
CC1=C(C(=O)Nc2cc(F)c(F)cc2F)C(c2cccc([N+](=O)[O-])c2)C(C(=O)Nc2ccccc2C(F)(F)F)=C(C)N1 (stereo unspecified)	–	> 43.7	> 43.7
O=C(CCc1nnc2s/c(=C\c3ccc([N+](=O)[O-])cc3)c(=O)n12)Nc1ccc(Cl)c(Cl)c1	–	> 69.2	38.9
O=Cc1[nH]c(=O)[nH]c(=O)c1CO	–	> 200	93.3
O=Nc1ccc(O)cc1Cc1ccccc1	–	> 200	3.63
Cn1c(=O)c(S(C)=O)c(O)c2ccccc21 (stereo unspecified)	–	> 200	> 200
O=C(C(=O)c1cc(-c2ccccc2)nc2ccc3ccccc3c12)c1ccccc1	–	> 200	174
CC1(C)OCC2OC3(CO)NP(=O)(N(CCCl)CCCl)OC3C2O1 (stereo unspecified)	inactive	–	–
CN(C)C(=NCc1ccccc1)NC#N	–	> 1230	> 1230
O=S(=O)(SSS(=O)(=O)c1ccc(Cl)cc1)c1ccc(Cl)cc1	–	> 63.1	> 63.1
CCCCC(CC)CN=Cc1c(O)c(O)c(C(C)C)c2cc(C)c(-c3c(C)cc4c(C(C)C)c(O)c(O)c(C=NCC(CC)CCCC)c4c3O)c(O)c12 (stereo unspecified)	–	> 200	145
C/C(=N\NC(=S)Nc1ccccc1)[C@H]1C2CCC(C2)C1C/C=C\CCCC(=O)O (stereo partly specified)	–	> 229	107

Compound	outcome	EC50 [µM]	IC50 [µM]
CCCCN(CCCC)C(=O)/C(CC(=O)c1cccc2ccccc12)=N\NC(=O)c1cc2ccccc2cc1O	–	> 34.7	16.2
COC(=O)CC(C(C(C)=O)C(=O)OCc1ccccc1)N1C(=O)OC(c2ccccc2)C1c1ccccc1 (stereo unspecified)	–	> 83.2	> 83.2
CCc1ccccc1NNc1cc(=O)[nH]c(=O)[nH]1	–	> 200	27.5
CN(C)CCCCN1c2ccccc2Sc2ccc(C(=O)c3ccccc3)cc21	–	> 200	6.61
O=C(NCc1ccc(Cl)c(Cl)c1)c1nc2ccccc2nc1NCc1ccc(Cl)c(Cl)c1	–	> 126	55
O=C1CSc2cc([N+](=O)[O-])ccc2N1	–	> 123	> 123
S=C(N/N=C/c1ccco1)NC12CC3CC(CC(C3)C1)C2	inactive	–	–
COc1ccc(-c2c(-c3ccccc3)c(C)c3ccccn23)cc1	–	> 200	42.7
COC(=O)C1(CCCCl)CCCN1C(=O)OC(C)(C)C (stereo unspecified)	–	> 200	> 200
N#C/C(=C/c1cccc(Oc2ccccc2)c1)c1ccccc1	–	> 6.76	> 6.76
CCOC(=O)CSc1nc(N)c2c(-c3ccc(OC)c(OC)c3)c3c(nc2n1)CCCC3	–	> 200	> 200
COc1ccc(/C(Cl)=C/c2ccc(Cl)c(Cl)c2)cc1	–	> 200	> 200
CC(=O)C(N)=Nc1ccccc1	–	> 1550	> 1550
CC(=S)N/C=C\c1nc2ccccc2[nH]c1=O	inactive	–	–
OC1c2ccccc2CC12Cc1ccccc1C2 (stereo unspecified)	–	> 200	145
O=S(=O)(CCC[C@H]1[C@@H](CCOCc2ccccc2)C2CCCN1O2)c1ccccc1 (stereo partly specified)	–	> 200	95.5
O=C(O)CN(CC(=O)O)C1CCCCC1N1CC(=O)OC(=O)C1 (stereo unspecified)	–	> 200	18.2
Cc1ccc([Si](O)(c2ccc(C)cc2)c2ccc(C)cc2)cc1	–	> 200	12
CC1c2c(cc(=O)n(Cc3ccccc3)c2O)C(=O)N1Cc1ccccc1 (stereo unspecified)	–	> 72.4	61.7
COC1/C=C/OC2(C)Oc3c(C)c(O)c4c(O)c(c(/C=N/N5C(C)CN(Cc6ccc(O)cc6)CC5C)c(O)c4c3C2=O)NC(=O)C(C)=C/C=C/C(C)C(O)C(C)C(O)C(C)C(OC(C)=O)C1C (stereo unspecified)	–	> 200	7.94
CC(C)(C)OC(=O)NCC(O)CNC(=O)OC(C)(C)C	–	> 871	> 871
C=C(Cc1ccc2c(c1)OCO2)C(=C)Cc1ccc(O)cc1O	–	> 200	55
Cc1ccc(C2(O)CSC(=NC34CC5CC(CC(C5)C3)C4)N2C(P(=O)(O)O)P(=O)(O)O)cc1 (stereo unspecified)	–	> 200	40.7

Compound	outcome	EC50 [µM]	IC50 [µM]
COc1ccc2ccc3[nH]c4c(C)cnc(NCCCN(C)C)c4c3c2c1	–	> 2	0.331
CC12CC3CC(C)(C1)CC(SC(=N)N)(C3)C2	–	> 776	38.9
O=C1C=C(N2CC2)C(=O)C(N2CC2)=C1N1CC1	–	> 10.7	0.0324
COC1=CC=C2Nc3nc(N)[nH]c(=O)c3SC2N1 (stereo unspecified)	–	> 178	> 178
CC1CCC(C(C)C)C(OC2(c3ccccc3)OC(=O)c3ccccc32)C1 (stereo unspecified)	inactive	–	–
O=c1c2cc3c(=O)n(CCc4ccccc4CO)c(=O)c3cc2c(=O)n1CCc1ccccc1CO	–	> 10.7	> 10.7
Cn1c(=O)nc2n(-c3ccc(Br)cc3)c3ccccc3nc-2c1=O	inactive	–	–
CCCCc1ccc(Nc2cc(=O)n(C)c(=O)[nH]2)cc1	–	> 200	> 200
CSc1ccc(NC(=O)Nc2cc(C)cc(C)n2)cc1	–	> 200	> 200
CC(C)C(C(=O)O)N(CC1(O)OCC(O)C(O)C1O)N=O (stereo unspecified)	inactive	–	–
S=c1cn[nH]c2ccccc12	–	> 661	170
Cc1cc(O)c2c(c1)C(=O)c1cc(O)cc(O)c1C2=O	inactive	–	–
O=C1NC(Cc2ccc(Cl)cc2)C(=O)N2CCCC12 (stereo unspecified)	–	> 200	95.5
COc1cc(OS(=O)(=O)O)c2c(c1)cc(O)c1c(=O)cc(C)oc12	–	> 151	> 151
COc1ccc(C(c2ccc(OC)cc2)N2C(=O)CCC2C(=O)O)cc1 (stereo unspecified)	–	> 200	> 200
CCSc1ccc([N+](=O)[O-])c2c(SCC)c3ccccc3nc12	inactive	–	–
O=C1NC(N2CCCC(CO)C2)=N/C1=C\c1ccc(Cl)cc1 (stereo unspecified)	–	> 200	115
N#CC1=C(N)Oc2cc(O)cc(O)c2C1c1ccccc1 (stereo unspecified)	–	> 200	> 100
CC(C1=C(O)c2ccccc2C(=O)C1=O)C1=C(O)c2ccccc2C(=O)C1=O	–	> 200	50.1
CCCCN=NNc1cn(C2OC(CO)C(O)C2O)c(=O)[nH]c1=O (stereo unspecified)	–	> 200	> 200
Cc1ccc(/C=C/C(=O)c2sc(-c3nc(C)c(C(=O)/C=C/c4ccc(C)cc4)s3)nc2C)cc1	–	> 38.9	> 38.9
CCOC(=O)C1(C(F)(F)F)N=C(CC)OC(N2CCOCC2)=N1 (stereo unspecified)	–	> 200	> 200
Cc1cn(C2CC(OC=O)C(CO)O2)c(=O)[nH]c1=O (stereo unspecified)	–	> 5750	61.7

Compound	outcome	EC50 [µM]	IC50 [µM]
O=C1CCC(=O)c2cc(Br)ccc2N1	–	> 141	> 141
O=C(/C=C/c1ccc(O)c(O)c1)OCCCc1ccccc1	–	> 200	5.01
O=C1c2cccnc2-c2nccc3c2c1nc1cc(Br)ccc13	–	> 2.69	0.132
O=C(CC1NCCS1)OCc1ccc(Br)cc1 (stereo unspecified)	–	19.1	81.3
O=C(CCN1CCCC1)CC(c1ccccc1)c1c(O)c2ccccc2oc1=O (stereo unspecified)	–	> 91.2	> 91.2
COc1cc2c(c3c1[C@@H](O)[C@H](C)[C@@H](C)O3)C=CC(C)(C)O2	–	> 200	79.4
CC1=C(OC2OC(CO)C(O)C(O)C2O)C(=O)C[C@H]2C1=CC[C@@H]1[C@@]2(C)C(=O)C[C@]2(C)[C@@H]([C@@](C)(O)C(=O)CCC(C)(C)O)[C@H](O)C[C@@]12C (stereo partly specified)	–	> 200	> 200
COc1ccc(CCN(C)C2CCC(C#N)(c3ccc(OC)c(OC)c3)CC2)cc1OC (stereo unspecified)	–	> 145	74.1
CC(C)=CCc1cc(C2CC(=O)c3c(O)cc(O)cc3O2)cc(CC=C(C)C)c1O (stereo unspecified)	inactive	–	–
CC(=O)OC1COC(c2ccccc2)OC1C1OC(c2ccccc2)OCC1OC(C)=O (stereo unspecified)	–	> 200	> 200
O=C(Nc1cc2c(cc1OCc1ccccc1)N(S(=O)(=O)c1ccccc1)[C@@H]1c3ccccc3OC[C@H]21)c1ccccc1	–	> 200	> 200
CC1(C)C(=O)C(C)(C)C(=O)C(C)(C)C1=O	inactive	–	–
CCOP(=O)(/C=C(\Cl)c1ccccc1)OCC	–	> 129	> 129
Cc1nn(C)c2c1NC(=O)CS2	inactive	–	–
CCCCCCCCCC1C(C)c2c([nH]c3ccccc23)C2C(=O)N(c3ccccc3)C(=O)C21 (stereo unspecified)	inactive	–	–
CCOC(=O)C(=O)Nc1cc(Cl)c(Cl)cc1Cl	–	> 63.1	> 63.1
FC(F)(F)c1nc2ccc(SSc3ccc4nc(C(F)(F)F)[nH]c4c3)cc2[nH]1	–	> 100	91.2
NNC(=O)C(O)C(O)C(=O)NN (stereo unspecified)	–	> 1410	631
CN(/C(=N\O)c1ccccc1)c1ccccc1	inactive	–	–
NCC(NC(=O)OCc1ccccc1)C(=O)O (stereo unspecified)	–	> 105	> 105
CCC(=N\N=C(N)N)/C(C)=N/N=C(N)N	–	> 23.4	> 23.4
